Results on four molecules are retold here after patent US20220323406A1, “METHODS AND COMPOSITIONS FOR DIFFERENTIATING STEM CELLS” (Massachusetts Institute of Technology, priority 2019, published 2022).

For experiment [1], the system named is ENR+CD organoids (ISC to Paneth cell differentiation). Briefly: Primary screen: basal (non-stimulated) lysozyme secretion LYZ.NS, 2.5-D 384-well ENR+CD organoid differentiation. It counts as cell-based, mouse. Conditions: primary screen; for Z.LYZ.NS: standard z score. The source says: (§1) High-throughput screening.
The next experiment concerns ENR+CD organoids. In words: Primary screen: ATP (CellTiter-Glo 3D, CTG) cell number/viability, 2.5-D 384-well ENR+CD organoids.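 As to all read-outs here: compounds given at plating and again on day 3 over a 6-day differentiation from ENR+CV stem-cell-enriched precursors, ATP measured on day 6, plate median as control.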 Particulars: primary screen; for Z.CTG: standard z score. For orientation: Cellular ATP, detected with luciferase, serves as a proxy for viable cell number.
In experiment [2] the test system is ENR+CD organoids (ISC to Paneth cell differentiation). Briefly: Primary screen: CCh-stimulated lysozyme secretion LYZ.S, 2.5-D 384-well ENR+CD organoid differentiation. The experiment is classed as cell-based, mouse. Conditions: primary screen.
Text: as §1

The mark [3] stands for this setting: dose 0.08 uM, FC relative to plate median.
Setting [4] is: dose 0.40 uM, FC relative to plate median.
Where [5] appears, read: dose 2.00 uM, FC relative to plate median.
The mark [6] stands for this setting: dose 10.00 uM, FC relative to plate median.
The mark [7] stands for this setting: dose 0.08 uM, FC vs plate median.
The mark [8] stands for this setting: dose 0.40 uM, FC vs plate median.
The mark [9] stands for this setting: dose 2.00 uM, FC vs plate median.

On to `Cl.O=C(O)Cc1cccc(OCCCN(Cc2cccc(C(F)(F)F)c2Cl)CC(c2ccccc2)c2ccccc2)c1` [GW3965 HCl], for which the “Dose.FC.LYZ.NS (log2 fold change)” value is reported as 0.059 in experiment [1] (dose 0.08 uM), 0.002 in experiment [1] (dose 0.40 uM), 0.077 in experiment [1] (dose 2.00 uM) and −0.009 in experiment [1] (dose 10.00 uM). The “Z.LYZ.NS (standard z score)” value in experiment [1] (dose 0.08 uM) is reported as 0.516; in experiment [1] (dose 0.40 uM), 0.013; in experiment [1] (dose 2.00 uM) it was 0.673; in experiment [1] (dose 10.00 uM), −0.080. Besides, the “Dose.FC.CTG (log2 fold change)” value was 0.138 in the experiment with ENR+CD organoids (dose 0.08 uM), 0.201 in the experiment on ENR+CD organoids (dose 0.40 uM), 0.229 in the experiment with ENR+CD organoids (dose 2.00 uM) and −0.078 with ENR+CD organoids (dose 10.00 uM). Moreover, the “Z.CTG (standard z score)” value is reported as 0.330 with ENR+CD organoids (dose 0.08 uM), 0.481 in the experiment on ENR+CD organoids (dose 0.40 uM), 0.546 with ENR+CD organoids (dose 2.00 uM) and −0.186 in the experiment with ENR+CD organoids (dose 10.00 uM). Moreover, the “Dose.FC.LYZ.S (log2 fold change)” value is 0.091 in experiment [2] (dose 0.08 uM), 0.074 in experiment [2] (dose 0.40 uM), 0.179 in experiment [2] (dose 2.00 uM) and −0.047 in experiment [2] (dose 10.00 uM).
Take `O=C(Nc1ccncc1)c1cc([N+](=O)[O-])ccc1Cl` [T0070907]: the Dose.FC.LYZ.NS in experiment [1] (setting [3]) is on record as 0.010 log2 fold change; in experiment [1] (setting [4]) it was −0.003 log2 fold change; in experiment [1] (setting [5]) it was 0.043 log2 fold change; in experiment [1] (setting [6]) it was −0.218 log2 fold change. For the same molecule, the Z.LYZ.NS in experiment [1] (dose 0.08 uM) was 0.084; in experiment [1] (dose 0.40 uM), −0.029; in experiment [1] (dose 2.00 uM) it was 0.373; in experiment [1] (dose 10.00 uM), −1.897. The Dose.FC.CTG is reported as 0.112 log2 fold change in the experiment with ENR+CD organoids (setting [3]), 0.026 log2 fold change with ENR+CD organoids (setting [4]), 0.050 log2 fold change in the experiment on ENR+CD organoids (setting [5]) and −0.756 log2 fold change in the experiment on ENR+CD organoids (setting [6]). Further, the Z.CTG with ENR+CD organoids (dose 0.08 uM) is 0.267; with ENR+CD organoids (dose 0.40 uM) it was 0.062; with ENR+CD organoids (dose 2.00 uM), 0.119; in the experiment on ENR+CD organoids (dose 10.00 uM), −1.806. Moreover, the Dose.FC.LYZ.S in experiment [2] (setting [3]) is recorded as −0.005 log2 fold change; in experiment [2] (setting [4]) it was −0.001 log2 fold change; in experiment [2] (setting [5]), 0.081 log2 fold change; in experiment [2] (setting [6]) it was −0.312 log2 fold change.
Turning to `CC(C)(C)n1nc(-c2ccc(Cl)cc2)c2c(N)ncnc21` [PP2], the Z.LYZ.NS is on record as 0.285 in experiment [1] (dose 0.08 uM), 0.104 in experiment [1] (dose 0.40 uM), 2.354 in experiment [1] (dose 2.00 uM) and −0.235 in experiment [1] (dose 10.00 uM). The Dose.FC.LYZ.NS in experiment [1] (setting [6]) was −0.027 log2 fold change; in experiment [1] (setting [7]), 0.033 log2 fold change; in experiment [1] (setting [8]), 0.012 log2 fold change; in experiment [1] (setting [9]), 0.270 log2 fold change. Further, the Z.CTG is listed as −1.655 in the experiment on ENR+CD organoids (dose 0.08 uM), 0.312 with ENR+CD organoids (dose 0.40 uM), −0.913 with ENR+CD organoids (dose 2.00 uM) and −0.587 with ENR+CD organoids (dose 10.00 uM). In addition, the Dose.FC.CTG is −0.246 log2 fold change with ENR+CD organoids (setting [6]), −0.693 log2 fold change with ENR+CD organoids (setting [7]), 0.130 log2 fold change in the experiment on ENR+CD organoids (setting [8]) and −0.382 log2 fold change with ENR+CD organoids (setting [9]). The Dose.FC.LYZ.S worked out at 0.027 log2 fold change in experiment [2] (setting [6]), 0.058 log2 fold change in experiment [2] (setting [7]), 0.145 log2 fold change in experiment [2] (setting [8]) and 0.113 log2 fold change in experiment [2] (setting [9]).
Consider `NC(=O)c1ccc(I)c([N+](=O)[O-])c1` [Iniparib (BSI-201)], for which the “Dose.FC.LYZ.NS (log2 fold change)” value in experiment [1] (dose 0.40 uM) is listed as 0.000; in experiment [1] (dose 2.00 uM), 0.016; in experiment [1] (dose 10.00 uM), −0.016. The “Z.LYZ.NS (standard z score)” value was 0.003 in experiment [1] (dose 0.40 uM), 0.138 in experiment [1] (dose 2.00 uM) and −0.139 in experiment [1] (dose 10.00 uM). Besides, the “Dose.FC.CTG (log2 fold change)” value was determined as 0.181 with ENR+CD organoids (dose 0.40 uM), 0.157 in the experiment on ENR+CD organoids (dose 2.00 uM) and 0.244 in the experiment with ENR+CD organoids (dose 10.00 uM). Moreover, the “Z.CTG (standard z score)” value in the experiment on ENR+CD organoids (dose 0.40 uM) came out at 0.432; in the experiment on ENR+CD organoids (dose 2.00 uM), 0.375; in the experiment with ENR+CD organoids (dose 10.00 uM) it was 0.583. The “Dose.FC.LYZ.S (log2 fold change)” value is on record as 0.035 in experiment [2] (dose 0.40 uM), −0.001 in experiment [2] (dose 2.00 uM) and −0.010 in experiment [2] (dose 10.00 uM).
